Results reported in US5496697A, “Methods and apparatus for detecting the effect of cell affecting agents on living cells” (priority 1993, dated 1996).

How the values were obtained:
[1] = molecular target: T1, rat M1 muscarinic receptor (Rattus norvegicus, UniProt P08482); experiment: metabolic rate of M1C-2 cells (B82 cells transfected with rat M1 muscarinic receptor); details: atropine alone, FIG. 28
T1 sequence (P08482 1-460): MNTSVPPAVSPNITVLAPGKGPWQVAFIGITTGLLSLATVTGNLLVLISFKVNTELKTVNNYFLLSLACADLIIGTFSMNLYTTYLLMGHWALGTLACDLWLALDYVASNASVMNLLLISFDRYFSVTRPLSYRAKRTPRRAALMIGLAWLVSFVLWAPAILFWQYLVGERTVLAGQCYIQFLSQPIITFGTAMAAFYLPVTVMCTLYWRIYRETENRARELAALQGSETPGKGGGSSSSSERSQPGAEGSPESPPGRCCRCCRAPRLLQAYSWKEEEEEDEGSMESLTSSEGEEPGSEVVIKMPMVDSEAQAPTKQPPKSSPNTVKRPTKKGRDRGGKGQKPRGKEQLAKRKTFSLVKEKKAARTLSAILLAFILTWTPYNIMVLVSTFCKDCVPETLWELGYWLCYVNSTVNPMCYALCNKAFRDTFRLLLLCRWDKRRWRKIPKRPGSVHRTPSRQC

[2] = tested on: normal human keratinocytes; experiment: metabolic rate of EGF-starved normal human keratinocytes; type: cell-based
Method: Normal human keratinocytes require epidermal growth factor (EGF) for proliferation without differentiation. Keratinocytes (from Clonetics, Inc.) were cultured in the absence of EGF for a period of 24 hours prior to the experiment. For the experiment, the keratinocytes were assembled into four flow chambers and the alternating stop-flow sequence was initiated with medium containing no EGF. At the time indicated by the arrow in FIG. 43, the syringes containing medium were changed on all four flow chambers. The second medium contained 5 ng/ml mouse EGF, or 1.25 μg/ml of a neutralizing rabbit anti-mouse-EGF polyclonal IgC, or both. A control with no EGF or IgC was also run. […] Addition of the anti-EGF antibody alone had no effect.
In a separate experiment, the growth medium for the normal human epidermal keratinocytes contained 10 ng/mL murine EGF, a substance found to be mitogenic for keratinocytes. […] It does show the same rising baseline, which probably indicates some combination of cell proliferation and adaptation to the environmental conditions in the flow chamber.
Stimulation of acidification rate was observable down to 0.1 ng/mL EGF. In a control experiment, the stimulation was abolished by a monoclonal antibody to EGF that is known to block receptor binding.

[3] = tested on: mouse and human fibroblasts; details: previously reported; cited from earlier work
[4] = tested on: vesicular stomatitis virus (VSV); type: cell-based; details: VSV-infected L cells, FIGS. 36-39

Molecule: CN1[C@@H]2CC[C@H]1C[C@@H](OC(=O)C(CO)c1ccccc1)C2 (stereo partly drawn) [Atropine]
- effect on cells alone [1]: no significant effect

Molecule: EGF: epidermal growth factor (mouse EGF) (NSYPGCPSSYDGYCLNGGVCMHIESLDSYTCNCVIGYSGDRCQTRDLRWWELR; Epidermal growth factor; UniProt P01132 977-1029, looked up)
- metabolic response of keratinocytes to EGF ([2]; 5 ng/ml mouse EGF, FIG. 43): metabolic burst
- metabolic rate at the peak ([2]; 50 ng/mL EGF, FIG. 44): nearly doubled
- time from peak to decay to a steadily rising baseline ([2]; 50 ng/mL EGF, FIG. 44): 15 min
- time to peak of response ([2]; 50 ng/mL EGF, FIG. 44): ~ 15 min
- time to rise in metabolic rate ([2]; 50 ng/mL EGF, FIG. 44): ≤ 5 min
- lowest concentration with observable stimulation of acidification rate ([2]; EGF): 0.1 ng/mL
- effect on glycolytic rate [3]: rapid increase in glycolytic rate

Molecule: NC(=O)c1ncn([C@@H]2O[C@H](CO)[C@@H](O)[C@H]2O)n1 [ribavirin]
- effect on VSV-induced change of host cell metabolism [4]: inhibition
